Assay results from ChEMBL document CHEMBL1201862, “PubChem BioAssay data set” (2004).
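Interpolation was linear, between the two tested concentrations surrounding the appropriate level; five concentrations were tested over 48 hours in 96-well plates. GI50 = concentration required for 50% inhibition of growth.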 The source made the active and inactive calls. Cut-off read from the data, not from the text of the source: active = GI50 up to about 1.1 µM and inactive = higher.

Tests used:
Assay in all cases: NCI anticancer screen, dose series, 48 h
UACC-62 = system: UACC-62
MDA-MB-231 = system: MDA-MB-231
RPMI-8226 = system: RPMI-8226
ACHN = system: ACHN
SW-620 = system: SW-620
HCT-15 = system: HCT-15
SNB-19 = system: SNB-19
EKVX = system: EKVX
SF-295 = system: SF-295
HOP-62 = system: HOP-62
A498 = system: A498
MDA-N = system: MDA-N
SK-MEL-2 = system: SK-MEL-2
HCT-116 = system: HCT-116
IGROV-1 = system: IGROV-1
T47D = system: T47D
UACC-257 = system: UACC-257
SK-MEL-5 = system: SK-MEL-5
MCF7 = system: MCF7
CAKI-1 = system: CAKI-1
Hs-578T = system: Hs-578T
CCRF-CEM = system: CCRF-CEM
UO-31 = system: UO-31
U-251 = system: U-251
NCI/ADR-RES = system: NCI/ADR-RES
KM12 = system: KM12
NCI-H522 = system: NCI-H522
DU-145 = system: DU-145
HT-29 = system: HT-29
HOP-92 = system: HOP-92
A549 = system: A549
SF-539 = system: SF-539
M14 = system: M14
NCI-H23 = system: NCI-H23
OVCAR-5 = system: OVCAR-5
HCC 2998 = system: HCC 2998
NCI-H226 = system: NCI-H226
OVCAR-4 = system: OVCAR-4
TK-10 = system: TK-10
OVCAR-3 = system: OVCAR-3
LOX IMVI = system: LOX IMVI
OVCAR-8 = system: OVCAR-8
SN12C = system: SN12C
BT-549 = system: BT-549
SK-OV-3 = system: SK-OV-3
786-0 = system: 786-0
COLO 205 = system: COLO 205
RXF 393 = system: RXF 393
K562 = system: K562
MDA-MB-435 = system: MDA-MB-435
SNB-75 = system: SNB-75
Malme-3M = system: Malme-3M
SF-268 = system: SF-268
HL-60 = system: HL-60
MOLT-4 = system: MOLT-4
SR = system: SR
NCI-H460 = system: NCI-H460
SK-MEL-28 = system: SK-MEL-28
PC-3 = system: PC-3

SMILES: Cn1c(=O)c2c3ccccc3n(C)c2n(C)c1=O
- GI50 (UACC-62): > 100 µM (inactive)
- GI50 (MDA-MB-231): > 100 µM (inactive)
- GI50 (RPMI-8226): > 100 µM (inactive)
- GI50 (ACHN): 97.9 µM (inactive)
- GI50 (SW-620): > 100 µM (inactive)
- GI50 (HCT-15): > 100 µM
- GI50 (SNB-19): > 100 µM (inactive)
- GI50 (EKVX): > 100 µM (inactive)
- GI50 (SF-295): > 100 µM (inactive)
- GI50 (HOP-62): > 100 µM (inactive)
- GI50 (A498): > 100 µM (inactive)
- GI50 (MDA-N): > 100 µM (inactive)
- GI50 (SK-MEL-2): > 100 µM (inactive)
- GI50 (HCT-116): > 100 µM (inactive)
- GI50 (IGROV-1): > 100 µM (inactive)
- GI50 (T47D): > 100 µM (inactive)
- GI50 (UACC-257): > 100 µM (inactive)
- GI50 (SK-MEL-5): > 100 µM (inactive)
- GI50 (MCF7): > 100 µM (inactive)
- GI50 (CAKI-1): > 100 µM (inactive)
- GI50 (Hs-578T): > 100 µM (inactive)
- GI50 (CCRF-CEM): > 100 µM (inactive)
- GI50 (UO-31): > 100 µM (inactive)
- GI50 (U-251): > 100 µM (inactive)
- GI50 (NCI/ADR-RES): > 100 µM (inactive)
- GI50 (KM12): > 100 µM (inactive)
- GI50 (NCI-H522): > 100 µM (inactive)
- GI50 (DU-145): > 100 µM (inactive)
- GI50 (HT-29): > 100 µM (inactive)
- GI50 (HOP-92): > 100 µM (inactive)
- GI50 (A549): > 100 µM (inactive)
- GI50 (SF-539): > 100 µM (inactive)
- GI50 (M14): > 100 µM (inactive)
- GI50 (NCI-H23): > 100 µM (inactive)
- GI50 (OVCAR-5): > 100 µM (inactive)
- GI50 (HCC 2998): > 100 µM (inactive)
- GI50 (NCI-H226): > 100 µM (inactive)
- GI50 (OVCAR-4): > 100 µM (inactive)
- GI50 (TK-10): > 100 µM (inactive)
- GI50 (OVCAR-3): > 100 µM (inactive)
- GI50 (LOX IMVI): > 100 µM (inactive)
- GI50 (OVCAR-8): > 100 µM (inactive)
- GI50 (SN12C): > 100 µM (inactive)
- GI50 (BT-549): > 100 µM (inactive)
- GI50 (SK-OV-3): 22.3 µM (inactive)
- GI50 (786-0): > 100 µM (inactive)
- GI50 (COLO 205): > 100 µM (inactive)
- GI50 (RXF 393): > 100 µM (inactive)
- GI50 (K562): > 100 µM (inactive)
- GI50 (MDA-MB-435): > 100 µM (inactive)
- GI50 (SNB-75): 1.26 µM (inactive)
- GI50 (Malme-3M): > 100 µM (inactive)
- GI50 (SF-268): > 100 µM (inactive)
- GI50 (HL-60): > 100 µM (inactive)
- GI50 (MOLT-4): > 100 µM (inactive)
- GI50 (SR): > 100 µM (inactive)

SMILES: CC(C(O)Cc1ccccc1)N(C)/N=N/c1ccc([N+](=O)[O-])cc1 (centres undefined)
- GI50 (UACC-62): 18.8 µM (inactive)
- GI50 (MDA-MB-231): 14.6 µM (inactive)
- GI50 (RPMI-8226): 16.9 µM (inactive)
- GI50 (ACHN): 25.6 µM (inactive)
- GI50 (SW-620): 23.9 µM (inactive)
- GI50 (HCT-15): 22.8 µM
- GI50 (NCI-H460): 15.2 µM (inactive)
- GI50 (SNB-19): 39.4 µM (inactive)
- GI50 (EKVX): 22.9 µM (inactive)
- GI50 (SF-295): 19.8 µM (inactive)
- GI50 (HOP-62): 16.7 µM (inactive)
- GI50 (MDA-N): 19.3 µM (inactive)
- GI50 (SK-MEL-2): 16.9 µM (inactive)
- GI50 (HCT-116): 16.4 µM (inactive)
- GI50 (IGROV-1): 19.4 µM (inactive)
- GI50 (T47D): 23.8 µM (inactive)
- GI50 (SK-MEL-28): 18 µM (inactive)
- GI50 (UACC-257): 21.4 µM (inactive)
- GI50 (SK-MEL-5): 18.6 µM (inactive)
- GI50 (PC-3): 18.3 µM (inactive)
- GI50 (MCF7): 24 µM (inactive)
- GI50 (CAKI-1): 21.9 µM (inactive)
- GI50 (Hs-578T): 24 µM (inactive)
- GI50 (CCRF-CEM): 29.6 µM (inactive)
- GI50 (UO-31): 15.2 µM (inactive)
- GI50 (U-251): 17.7 µM (inactive)
- GI50 (NCI/ADR-RES): 18.8 µM (inactive)
- GI50 (KM12): 21.7 µM (inactive)
- GI50 (DU-145): 27 µM (inactive)
- GI50 (HT-29): 18.6 µM (inactive)
- GI50 (A549): 23.1 µM (inactive)
- GI50 (M14): 16.8 µM (inactive)
- GI50 (NCI-H23): 20.1 µM (inactive)
- GI50 (OVCAR-5): 25.5 µM (inactive)
- GI50 (HCC 2998): 16.7 µM (inactive)
- GI50 (NCI-H226): 19.5 µM (inactive)
- GI50 (OVCAR-4): 29.9 µM (inactive)
- GI50 (TK-10): 22.5 µM (inactive)
- GI50 (OVCAR-3): 14.8 µM (inactive)
- GI50 (OVCAR-8): 17.6 µM (inactive)
- GI50 (SN12C): 22 µM (inactive)
- GI50 (BT-549): 19.6 µM (inactive)
- GI50 (SK-OV-3): 22.3 µM (inactive)
- GI50 (786-0): 18.5 µM (inactive)
- GI50 (COLO 205): 21.2 µM (inactive)
- GI50 (RXF 393): 1.19 µM (inactive)
- GI50 (K562): 27.2 µM (inactive)
- GI50 (MDA-MB-435): 18.9 µM (inactive)
- GI50 (SNB-75): 23.1 µM (inactive)
- GI50 (Malme-3M): 22.2 µM (inactive)
- GI50 (SF-268): 21 µM (inactive)
- GI50 (HL-60): 84.1 µM (inactive)
- GI50 (MOLT-4): 18.2 µM (inactive)
